Counter-ions that a name gives are not always drawn.
How the values were obtained:
[1] = tested on: Peripheral blood mononuclear cells from an MPN patient (PV, JAK2-V617F+); test: Epo-independent erythroid colony formation; assay type: cell-based, human; settings: Compound 1 alone, colonies scored after 12 days
Text: Epo-independent erythroid colonies were scored after 12 days. […] The lower measured % growth indicates synergy.

Pim2 = target: T1, Pim2 (Homo sapiens, UniProt Q9P1W9); test: Pim-2 kinase assay (Assay B); assay type: biochemical; settings: 1 mM ATP
T1 construct: purchased Invitrogen PV3649
Protocol: Pim-2 kinase assay—20 μL reactions were run in white 384 well polystyrene plates dotted with 0.8 μL compound/DMSO in the assay buffer (50 mM Tris, pH 7.5, 0.01% Tween-20, 5 mM MgCl2, 0.01% BSA, 5 mM DTT), containing 0.05 μM Fluorescein-labeled CREBtide peptide substrate (Invitrogen PV3508), 1 mM ATP, and 1 nM enzyme (Invitrogen PV3649) for 2 h at 25° C. Reactions were stopped by addition of 10 μL TR-FRET Dilution Buffer (Invitrogen PV3574) with 30 mM EDTA and 1.5 nM LanthaScreen Tb-CREB pSer133 antibody (Invitrogen PV3566). After 30 min. incubation at room temperature, plates were read on a PHERAstar FS plate reader (BMG Labtech).

Pim3 = Pim3 (Homo sapiens, UniProt Q86V86); test: Pim-3 kinase assay (Assay B); assay type: biochemical; settings: 1 mM ATP
[2] = Protein binding in human serum (equilibrium dialysis); assay type: in vitro ADME; settings: 0.3 μM-10 μM
Protocol: For human, the average in vitro serum fraction unbound (fu) of 7.0%. For the protein binding determination, the Multi-Equilibrium Dialyzer System™ and diachema membranes from Harvard Apparatus (Holliston, Mass.) were utilized. Samples were protein precipitated, matrix matched and then centrifuged. The supernatant was transferred and analyzed using LC-MS/MS. The percent fraction unbound for in vitro samples was calculated using final peak area ratios in post-dialysis buffer divided by final peak area ratios in post-dialysis serum, with correction applied for volume shift.

[3] = tested on: pBAD in KMS12BM cell line; test: pBAD inhibition by patient plasma samples incubated ex vivo with KMS12BM cell line; assay type: in vivo, human; settings: KMS-12-BM, 192 h; 80 mg BID, cycle 1, day 8, time course
Protocol: Plasma samples from patients were incubated ex vivo with the KMS12BM cell line for 2.5 hours at 37° C. Whole cell lysates were prepared from the cells, and levels of pBAD were determined using an ELISA.

[4] = Conversion of Example 3 cell activity to protein-binding adjusted activity and human dose
Pim1 = target: T2, Pim1 (Homo sapiens, UniProt P11309); test: Pim-1 kinase assay (Assay B); assay type: biochemical; settings: 1 mM ATP
T2 construct: purchased Invitrogen PV3503
Protocol: Pim-1 and Pim-3 kinase assays—20 μL reactions were run in white 384 well polystyrene plates dotted with 0.8 μL compound/DMSO in the assay buffer (50 mM Tris, pH 7.5, 0.01% Tween-20, 5 mM MgCl2, 0.01% BSA, 5 mM DTT), containing 0.05 μM Biotin-labeled BAD peptide substrate (AnaSpec 62269), 1 mM ATP, and 2.5 pM (Pim-1, Invitrogen PV3503) or 1.25 pM (Pim-3, Millipore 14-738) enzyme for 1 h at 25° C. Reactions were stopped by addition of 10 μL STOP Buffer (150 mM Tris, pH=7.5, 150 mM NaCl, 75 mM EDTA, 0.01% Tween-20, 0.3% BSA) supplemented with Phospho-Bad (Ser112) Antibody (Cell Signaling 9291) diluted 666-fold, and Streptavidin donor beads (PerkinElmer 6760002) along with Protein-A acceptor beads (PerkinElmer 6760137) at 15 μg/mL each. Supplementation of the STOP buffer with beads and stopping the reactions were done under reduced light. Prior to the stopping reactions STOP buffer with beads was pre-incubated for 1 h in the dark at room temperature. After stopping the reactions, plates were incubated for 1 h in the dark at room temperature before reading on a PHERAstar FS plate reader (BMG Labtech) under reduced light.

[5] = Free fraction in media of the Example 3 assay; assay type: in vitro ADME; settings: cell assay media (Example 3 assay); media of Example 3 assay
Text: The assay in Example 3 involved plating cells from blood in media. […] The serum free fraction and media free fractions of 7% and 58% can be used to convert the results in Example 3 to an human dose assuming a linear dose-response curve.

T1 sequence (Q9P1W9 whole entry): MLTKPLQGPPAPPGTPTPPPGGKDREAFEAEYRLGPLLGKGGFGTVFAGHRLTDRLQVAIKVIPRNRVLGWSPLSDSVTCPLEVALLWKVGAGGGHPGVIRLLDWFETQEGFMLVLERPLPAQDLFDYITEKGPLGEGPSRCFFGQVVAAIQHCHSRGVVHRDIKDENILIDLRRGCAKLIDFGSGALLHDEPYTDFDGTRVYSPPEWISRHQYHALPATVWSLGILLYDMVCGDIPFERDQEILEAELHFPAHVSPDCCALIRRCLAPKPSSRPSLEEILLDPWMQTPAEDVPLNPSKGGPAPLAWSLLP
T2 sequence (P11309 whole entry): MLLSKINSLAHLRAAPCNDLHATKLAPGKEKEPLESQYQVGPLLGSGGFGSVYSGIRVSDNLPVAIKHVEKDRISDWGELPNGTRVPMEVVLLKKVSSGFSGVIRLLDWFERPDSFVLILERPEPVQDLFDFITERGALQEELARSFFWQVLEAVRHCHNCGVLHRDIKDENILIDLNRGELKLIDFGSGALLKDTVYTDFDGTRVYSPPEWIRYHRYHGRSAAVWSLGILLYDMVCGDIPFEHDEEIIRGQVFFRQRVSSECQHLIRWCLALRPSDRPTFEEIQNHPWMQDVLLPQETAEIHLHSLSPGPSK

C[C@H]1CN(c2c(NC(=O)c3ccc(F)c(-c4c(F)cccc4F)n3)cnc3c2CC[C@H]3O)C[C@@H](N)[C@@H]1O [Compound 1, N-{(7R)-4-[(3R,4R,5S)-3-Amino-4-hydroxy-5-methylpiperidin-1-yl]-7-hydroxy-6,7-dihydro-5H-cyclopenta[b]pyridin-3-yl}-6-(2,6-difluorophenyl)-5-fluoropyridine-2-carboxamide]
neoplastic erythroid colony formation of JAK2-V617F(+) MPN hematopoietic progenitors [1]: Inhibition
IC50 (Pim2): ≤ 0.1 µM
IC50 (Pim3): ≤ 0.1 µM
protein binding [2]: high protein binding
fraction unbound ([2]; read-out: average in vitro serum fraction unbound (fu)): 0.07
inhibition at 80 mg [3]: 76%
shift in activity (media to serum protein binding) ([4]; (58%)/7%): 8.3 fold
inhibition level corresponding to protein-binding adjusted activity ([4]; adjusted activity 8.3 nM): IC5.7
inhibition level corresponding to protein-binding adjusted activity ([4]; adjusted activity 41 nM): IC23
Protein-binding adjusted activity ([4]; cell activity Example 3: 1 nM): 8.3 nM
Protein-binding adjusted activity ([4]; cell activity Example 3: 5 nM): 41 nM
Protein-binding adjusted activity ([4]; cell activity Example 3: 20 nM): 166 nM
IC50 (Pim1): ≤ 0.1 µM
fraction unbound [5]: 0.58

C[C@H]1CN(c2c(NC(=O)c3ccc(F)c(-c4c(F)cccc4F)n3)cnc3c2CC[C@H]3O)C[C@@H](N)[C@@H]1O [dihydrochloric acid salt of Compound 1]
IC50 (Pim2): < 0.035 µM
IC50 (Pim3): < 0.035 µM
IC50 (Pim1): < 0.035 µM

C[C@H]1CN(c2c(NC(=O)c3ccc(F)c(-c4c(F)cccc4F)n3)cnc3c2CC[C@H]3O)C[C@@H](N)[C@@H]1O [phosphoric acid salt of Compound 1]
IC50 (Pim2): < 0.035 µM
IC50 (Pim3): < 0.035 µM
IC50 (Pim1): < 0.035 µM

— patent US11278541B2, “Low dose combination therapy for treatment of myeloproliferative neoplasms” (Incyte Corporation, priority 2017, dated 2022)
